Experimental data published in patent US12312370B2, “Immunoproteasome inhibitors” (Principia Biopharma Inc., priority 2017, dated 2025).

Experiments:
[1] = target: immunoproteasome LMP7/B5i subunit (Homo sapiens, UniProt P28062); assay: Caliper-based proteasome enzymatic activity assay, LMP7; assay type: biochemical; conditions: human recombinant immunoproteasome 0.3 nM, FAM-labeled peptide substrate 1 μM, rt 3 h; read-out: LMP7 subunit IC50
[2] = target: constitutive proteasome β5c unit (Homo sapiens, UniProt P28074); assay: Caliper-based proteasome enzymatic activity assay, β5c; assay type: biochemical; conditions: human recombinant constitutive proteasome 0.3 nM, FAM-labeled peptide substrate 1 μM, rt 3 h; read-out: β5c subunit IC50

Row | SMILES | IC50 [1] [nM] | IC50 [2] [nM]
1 | CC(C)(C=C(C#N)C(=O)N1C2CCC1(COC(=O)N[C@@H](Cc1ccc(F)cc1)B(O)O)CC2)N1CCC(F)(F)C1 [Example 84, (R)-(1-((((7-(2-cyano-4-(3,3-difluoropyrrolidin-1-yl)-4-methylpent-2-enoyl)-7-azabicyclo[2.2.1]heptan-1-yl)methoxy)carbonyl)amino)-2-(4-fluorophenyl)ethyl)boronic acid] | 0.7 | 279
2 | C=CC(=O)N1CC(COC(=O)N[C@@H](Cc2ccccc2)B(O)O)C1 [Example 86, (R)-(1-((((1-acryloylazetidin-3-yl)methoxy)carbonyl)amino)-2-phenylethyl)boronic acid] | 59.1 | 218
3 | CC(C)(C)/C=C(\C#N)C(=O)N1CC[C@H](OC(=O)N[C@@H](Cc2ccccc2)B(O)O)C1 [Example 87, ((R)-1-(((((S)-1-((E)-2-cyano-4,4-dimethylpent-2-enoyl)pyrrolidin-3-yl)oxy)carbonyl)amino)-2-phenylethyl)boronic acid] | 1.9 | 574
4 | CC(C)(C=C(C#N)C(=O)N1CC[C@H](OC(=O)N[C@@H](Cc2ccccc2)B(O)O)C1)N1CCC(F)(F)C1 [Example 89, ((R)-1-(((((S)-1-(2-cyano-4-(3,3-difluoropyrrolidin-1-yl)-4-methylpent-2-enoyl)pyrrolidin-3-yl)oxy)carbonyl)amino)-2-phenylethyl)boronic acid] | 1.8 | 1140
5 | CC(C)(C=C(C#N)C(=O)N1CC[C@@H](OC(=O)N[C@@H](Cc2ccccc2)B(O)O)C1)N1CCC(F)(F)C1 [Example 90, ((R)-1-(((((R)-1-(2-cyano-4-(3,3-difluoropyrrolidin-1-yl)-4-methylpent-2-enoyl)pyrrolidin-3-yl)oxy)carbonyl)amino)-2-phenylethyl)boronic acid] | 3.2 | 1590
6 | CC(C)(C=C(C#N)C(=O)N1CC[C@H](COC(=O)N[C@@H](Cc2ccccc2)B(O)O)C1)N1CCC(F)(F)C1 [Example 95, ((R)-1-(((((S)-1-(2-cyano-4-(3,3-difluoropyrrolidin-1-yl)-4-methylpent-2-enoyl)pyrrolidin-3-yl)methoxy)carbonyl)amino)-2-phenylethyl)boronic acid] | 6.9 | 2640
7 | COC(=O)N1CCN(C(C)(C)C=C(C#N)C(=O)N2CC[C@H](COC(=O)N[C@@H](Cc3ccccc3)B(O)O)C2)CC1 [Example 96, ((R)-1-(((((S)-1-(2-cyano-4-(4-(methoxycarbonyl)piperazin-1-yl)-4-methylpent-2-enoyl)pyrrolidin-3-yl)methoxy)carbonyl)amino)-2-phenylethyl)boronic acid] | 8.7 | 1620
8 | CC(C)(C=C(C#N)C(=O)N1CCC[C@H](OC(=O)N[C@@H](Cc2ccccc2)B(O)O)C1)N1CCN2C(=O)OC[C@@H]2C1 [Example 97, ((R)-1-(((((S)-1-(2-cyano-4-methyl-4-((S)-3-oxotetrahydro-3H-oxazolo[3,4-a]pyrazin-7(1H)-yl)pent-2-enoyl)piperidin-3-yl)oxy)carbonyl)amino)-2-phenylethyl)boronic acid] | 7.7 | 1950
9 | CC(C)(C=C(C#N)C(=O)N1CCC[C@H](OC(=O)N[C@@H](Cc2ccccc2)B(O)O)C1)N1CCN2C(=O)OC[C@H]2C1 [Example 98, ((R)-1-(((((S)-1-(2-cyano-4-methyl-4-((R)-3-oxotetrahydro-3H-oxazolo[3,4-a]pyrazin-2(1H)-yl)pent-2-enoyl)piperidin-3-yl)oxy)carbonyl)amino)-2-phenylethyl)boronic acid] | 5.6 | 2500
10 | CC(C)(C=C(C#N)C(=O)N1CC[C@H](COC(=O)N[C@@H](Cc2ccccc2)B(O)O)C1)N1CCOCC1 [Example 99, ((R)-1-(((((S)-1-(2-cyano-4-methyl-4-morpholinopent-2-enoyl)pyrrolidin-3-yl)methoxy)carbonyl)amino)-2-phenylethyl)boronic acid] | 19.3 | 3760
11 | CC(C)(C=C(C#N)C(=O)N1CC[C@H](NC(=O)N[C@@H](Cc2ccccc2)B(O)O)C1)N1CCC(F)(F)C1 [Example 100, ((R)-1-(3-((S)-1-(2-cyano-4-(3,3-difluoropyrrolidin-1-yl)-4-methylpent-2-enoyl)pyrrolidin-3-yl)ureido)-2-phenylethyl)boronic acid] | 206 | 3560
12 | CC(C)(C=C(C#N)C(=O)N1CCC[C@@H](NC(=O)N[C@@H](Cc2ccccc2)B(O)O)C1)N1CCC(F)(F)C1 [Example 101, ((R)-1-(3-((R)-1-(2-cyano-4-(3,3-difluoropyrrolidin-1-yl)-4-methylpent-2-enoyl)piperidin-3-yl)ureido)-2-phenylethyl)boronic acid] | 145 | 3920
13 | C=CC(=O)N1C[C@@H](F)[C@H](OC(=O)N[C@@H](Cc2ccccc2)B(O)O)C1 [Example 102, ((R)-1-(((((3R,4R)-1-acryloyl-4-fluoropyrrolidin-3-yl)oxy)carbonyl)amino)-2-phenylethyl)boronic acid] | 27.1 | 4700
14 | CC(C)(C=C(C#N)C(=O)N1CCCC[C@H](OC(=O)N[C@@H](Cc2ccccc2)B(O)O)C1)N1CCC(F)(F)C1 [Example 106, ((R)-1-(((((S)-1-(2-cyano-4-(3,3-difluoropyrrolidin-1-yl)-4-methylpent-2-enoyl)azepan-3-yl)oxy)carbonyl)amino)-2-phenylethyl)boronic acid] | 2.5 | 2660
15 | COC(=O)N1CCN(C(C)(C)C=C(C#N)C(=O)N2CCCC[C@@H](OC(=O)N[C@@H](Cc3ccccc3)B(O)O)C2)CC1 [Example 107, ((R)-1-(((((R)-1-(2-cyano-4-(4-(methoxycarbonyl)piperazin-1-yl)-4-methylpent-2-enoyl)azepan-3-yl)oxy)carbonyl)amino)-2-phenylethyl)boronic acid] | 1 | 1070
16 | COC(=O)N1CCN(C(C)(C)C=C(C#N)C(=O)N2CCCC[C@H](OC(=O)N[C@@H](Cc3ccccc3)B(O)O)C2)CC1 [Example 108, ((R)-1-(((((S)-1-(2-cyano-4-(4-(methoxycarbonyl)piperazin-1-yl)-4-methylpent-2-enoyl)azepan-3-yl)oxy)carbonyl)amino)-2-phenylethyl)boronic acid] | 1.2 | 3000
17 | CC(C)(C=C(C#N)C(=O)N1C[C@H](OC(=O)N[C@@H](Cc2ccccc2)B(O)O)[C@@H](F)C1)N1CCC(F)(F)C1 [Example 109, ((R)-1-(((((3S,4S)-1-(2-cyano-4-(3,3-difluoropyrrolidin-1-yl)-4-methylpent-2-enoyl)-4-fluoropyrrolidin-3-yl)oxy)carbonyl)amino)-2-phenylethyl)boronic acid] | 3.5 | 621
18 | C=CC(=O)N1C[C@H](OC(=O)N[C@@H](Cc2ccccc2)B(O)O)[C@@H](F)C1 [Example 110, ((R)-1-(((((3S,4S)-1-acryloyl-4-fluoropyrrolidin-3-yl)oxy)carbonyl)amino)-2-phenylethyl)boronic acid] | 78.3 | 2840
19 | CC(C)(C=C(C#N)C(=O)N1C[C@H](F)[C@H](OC(=O)N[C@@H](Cc2ccccc2)B(O)O)C1)N1CCC(F)(F)C1 [Example 111, ((R)-1-(((((3R,4S)-1-(2-cyano-4-(3,3-difluoropyrrolidin-1-yl)-4-methylpent-2-enoyl)-4-fluoropyrrolidin-3-yl)oxy)carbonyl)amino)-2-phenylethyl)boronic acid] | 1.9 | 140
20 | CC(C)(C=C(C#N)C(=O)N1CCC[C@H](NC(=O)N[C@@H](Cc2ccccc2)B(O)O)C1)N1CCC(F)(F)C1 [Example 112, ((R)-1-(3-((S)-1-(2-cyano-4-(3,3-difluoropyrrolidin-1-yl)-4-methylpent-2-enoyl)piperidin-3-yl)ureido)-2-phenylethyl)boronic acid] | 143 | 2240
21 | CC(C)(C=C(C#N)C(=O)N1C[C@@H](F)[C@H](OC(=O)N[C@@H](Cc2ccccc2)B(O)O)C1)N1CCC(F)(F)C1 [Example 113, ((R)-1-(((((3R,4R)-1-(2-cyano-4-(3,3-difluoropyrrolidin-1-yl)-4-methylpent-2-enoyl)-4-fluoropyrrolidin-3-yl)oxy)carbonyl)amino)-2-phenylethyl)boronic acid] | 2.3 | 520
22 | C[C@@H]1CN(C(C)(C)C=C(C#N)C(=O)N2C3CCC2(COC(=O)N[C@@H](Cc2ccccc2)B(O)O)CC3)C[C@H](C)O1 [Example 114, ((R)-1-((((7-(2-cyano-4-((2S,6R)-2,6-dimethylmorpholino)-4-methylpent-2-enoyl)-7-azabicyclo[2.2.1]heptan-1-yl)methoxy)carbonyl)amino)-2-phenylethyl)boronic acid] | 2.1 | 1670
23 | C=CC(=O)N1C[C@H](F)[C@H](OC(=O)N[C@@H](Cc2ccccc2)B(O)O)C1 [Example 115, ((R)-1-(((((3R,4S)-1-acryloyl-4-fluoropyrrolidin-3-yl)oxy)carbonyl)amino)-2-phenylethyl)boronic acid] | 18.3 | 207
24 | CC(C)(C=C(C#N)C(=O)N1C2CCC1(COC(=O)N[C@@H](Cc1ccccc1)B(O)O)CC2)N1CCOC2(CC2)C1 [Example 116, (R)-(1-((((7-(2-cyano-4-methyl-4-(4-oxa-7-azaspiro[2.5]octan-7-yl)pent-2-enoyl)-7-azabicyclo[2.2.1]heptan-1-yl)methoxy)carbonyl)amino)-2-phenylethyl)boronic acid] | 1.3 | 753
25 | CC(C)(C=C(C#N)C(=O)N1CCC[C@H](OC(=O)N[C@@H](CC2=CCCC2)B(O)O)C1)N1CCC(F)(F)C1 [Example 117, ((R)-1-(((((S)-1-(2-cyano-4-(3,3-difluoropyrrolidin-1-yl)-4-methylpent-2-enoyl)piperidin-3-yl)oxy)carbonyl)amino)-2-(cyclopent-1-en-1-yl)ethyl)boronic acid] | 4.3 | > 5000
